Source: patent publication US20250129067A1 (Progentos Therapeutics, Inc., priority 2021, published 2025)
“And” between values parts separate entries of the source, which are not always exact repeats. Equal values may be shown once. Read-outs that look alike come from different tables or passages of the source.

Key:
MBP (myelin) in brain = test: Remyelination in chronically demyelinated mice (cuprizone model), MBP staining; format: in vivo, C57BL/6 mice; settings: for In vivo MBP Increases: MBP staining at day 10 after the first dose, blinded score
Experimental: The ability of newly constructed compounds (described in above Examples) to induce remyelination after demyelination in adult mice was tested using a cuprizone model. Cuprizone administration specifically induces the loss of myelin and oligodendrocytes. Mice were maintained on cuprizone chow to induce demyelination, the cuprizone was discontinues, and the compounds were administered. The animals were sacrificed 10 days after compound administration was initiated and their brains sections and stained for MBP, an important component of myelin.
The chow was stored at 4° C. until use.
Mice were allowed ad libitum access to cuprizone chow. […] The cuprizone diet was discontinued 24 hours before compound treatment was initiated.
To assess oligodendrocyte differentiation, the mice were euthanized and assessed at day 3 after the first dose. To assess MBP expression, the animals were euthanized and assessed at day 10 after the first dose.
For some compounds, MBP intensity, an intensity weighted positive pixel count, was measured using an algorithm developed in Visiopharm Software.

[1] = test system: GPR17+ cells (newly differentiated oligodendrocytes); test: In vivo OPC differentiation, GPR17+ cells in brain
PDGFRα = PDGFRα (Homo sapiens (Human), UniProt P16234); test: PDGFRα kinase enzyme assay (Promega PDGFRα Kinase Enzyme System, ADP-Glo); format: biochemical; settings: 150 uM ATP
Chain of PDGFRα (P16234 24-1089): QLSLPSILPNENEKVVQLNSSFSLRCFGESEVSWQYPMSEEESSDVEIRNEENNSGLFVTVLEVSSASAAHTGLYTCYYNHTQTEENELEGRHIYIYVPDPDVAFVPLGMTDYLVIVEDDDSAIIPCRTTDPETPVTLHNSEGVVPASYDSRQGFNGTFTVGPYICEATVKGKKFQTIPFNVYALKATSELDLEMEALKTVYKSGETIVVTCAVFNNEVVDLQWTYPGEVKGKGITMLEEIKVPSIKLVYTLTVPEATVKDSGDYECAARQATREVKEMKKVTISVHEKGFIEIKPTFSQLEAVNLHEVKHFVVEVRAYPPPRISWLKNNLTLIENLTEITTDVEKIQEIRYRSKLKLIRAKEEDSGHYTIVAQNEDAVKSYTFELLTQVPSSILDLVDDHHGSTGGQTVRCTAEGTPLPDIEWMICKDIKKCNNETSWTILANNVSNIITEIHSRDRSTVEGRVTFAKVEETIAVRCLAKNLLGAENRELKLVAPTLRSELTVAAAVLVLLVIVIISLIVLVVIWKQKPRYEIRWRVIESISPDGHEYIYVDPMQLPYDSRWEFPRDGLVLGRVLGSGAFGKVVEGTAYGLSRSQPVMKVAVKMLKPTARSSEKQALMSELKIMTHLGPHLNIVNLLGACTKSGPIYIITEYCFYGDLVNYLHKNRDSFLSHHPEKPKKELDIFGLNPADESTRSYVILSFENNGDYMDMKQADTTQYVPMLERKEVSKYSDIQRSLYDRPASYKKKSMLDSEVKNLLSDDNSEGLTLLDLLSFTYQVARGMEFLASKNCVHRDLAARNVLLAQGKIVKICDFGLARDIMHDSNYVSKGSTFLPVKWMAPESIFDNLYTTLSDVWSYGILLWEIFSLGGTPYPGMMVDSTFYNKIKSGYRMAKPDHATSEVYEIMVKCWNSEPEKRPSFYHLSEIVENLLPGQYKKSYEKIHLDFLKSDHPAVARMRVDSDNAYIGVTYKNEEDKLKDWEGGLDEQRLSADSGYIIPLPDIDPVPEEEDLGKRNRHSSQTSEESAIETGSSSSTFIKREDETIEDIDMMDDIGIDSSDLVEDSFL
Outline: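 Purified PDGFRα protein (20 ng) reacted with test compound per the Promega kinase system protocol. ADP formed was measured by ADP-Glo luminescence against a standard curve, giving IC50.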

[2] = test system: Oligodendrocyte progenitor cells (OPCs); test: In vitro OPC differentiation assay, GPR17 expression (immunocytochemistry); settings: 72 hours, fold change over vehicle; for GPR17 Fold Induction (Over Vehicle; 3 μM): 3 μM (10× concentration, final 0.3 μM)
[3] = test system: Oligodendrocyte progenitor cells (OPCs); test: In vitro OPC differentiation assay, MBP expression (immunocytochemistry); settings: 72 hours of treatment; fold change over vehicle
In vivo half-life = settings: comparison in words
[4] = test system: NG2+ cells (OPCs) in brain; test: OPC population recovery after administration of PDGFRα inhibitor, NG2 staining; format: in vivo, C57BL/6 mice; settings: mice
Experimental: OPCs first appear during embryonic organogenesis and continue to exist in adult brain (in both gray and white matter), maintaining their population through self-renewal. To assess whether PDGFRα inhibitors described herein have an effect on the maintenance of the OPC population when administered in vivo, two different PDGFRα inhibitors were tested, each having a different in vivo half-life. Then, the expression of NG2 (marker for OPCs) was assessed in the brains of the treated mice at various time points after treatment as described in more detail below.
The mice received a single administration of either Compound 6 (10 mg/kg) or Compound 78 (5 mg/kg). Control animals received a vehicle control. Then, at days 3, 6, 9, or 12 days after dosing, some of the animals from each of the treatment groups were sacrificed and their brains were harvested for analysis.
The floating sections were incubated with a rabbit anti-NG2 antibody (EMD Millipore, catalog no. AB5320) (i.e., the primary antibody) diluted in blocking solution (to a concentration of 1:1000) overnight at room temperature on a shaker.
NG2 staining was assessed by an observer blinded to the treatment condition and given a score from 1 to 5, with 5 representing the level of OPC population observed in naïve animals that had not received an exemplar PDGFRα inhibitor.

[5] = test system: GPR17+ cells in brain tissue; test: Differentiation of newly generated OPCs after a second dose, GPR17+ cells; format: in vivo, C57BL/6 mice
Experimental: Further to the results provided above in Example 244, it was assessed whether OPCs that are newly generated (i.e., through self-renewal) after PDGFRα inhibitor administration have the ability to differentiate into mature oligodendrocytes. As described below, testing this made use of the transient characteristics of GPR17 expression. […] Therefore, the effects of a first and second dose of compound can be distinguished from one another. In these experiments, mice received a first dose of either vehicle or compound, which differentiated the OPCs and reduced the size of the OPC population. Five, fourteen, or twenty-one days later, mice received a second dose of compound and the response to the second dose was measured. These intervals tested whether newly generated OPCs could respond to compound and differentiate into oligodendrocytes. It also tested what the minimum interval was between two doses to get a nearly full response from the second dose.
Mice were treated with a vehicle control and/or Compound 78. The specific treatment groups were as follows: (1) single dose of the vehicle control on day 1; (2) a dose of the vehicle control on day 0 and a dose of compound 78 on day 5; (3) a first dose of compound 78 on day 0 and a second dose of compound 78 on day 5; (4) a first dose of compound 78 on day 0 and a second dose of compound 78 on day 14; and (5) a first dose of compound 78 on day 0 and a second dose of compound 78 on day 21. As described in the above examples, the animals were sacrificed three days after the last dose and their brains were harvested for analysis. GPR17+ expression in the brain tissue was assessed as described herein. Then, the mice were sacrificed 3 days after the second dose and the brains were harvested for analysis.
Histology was performed as described in Example 244 using reagents described in Table xx (below).
Images obtained from the histology preparations were analyzed using a custom protocol implemented with Visiopharm software to count GPR17+ cells.

[6] = 20 ng purified PDGFRα, Poly (Glu4Tyr1) substrate, two hours, 11-point dose response, read-out: IC50 Values on PDGFRα Kinase Inhibition
[7] = 11-point dose response, 10,000 nM to 0.169 nM, BLQ = below limit of quantitation, read-out: IC50 Values on PDGFRα Kinase Inhibition, IC50
[8] = Mus musculus, po, 24 h, read-out: GPR17 Fold Induction (Over Vehicle)

SMILES | IC50 (PDGFRα; [7]) [nM] | GPR17 Fold Induction (Over Vehicle; 3 μM) [2] | MBP Fold Induction (Over vehicle) [3] | fold induction at 3 mg/kg [1, 8] | other results
Cn1cc(-c2cc3c(N4CCN(c5ncc([C@@](C)(N)c6ccc(F)cc6)cn5)CC4)ncnn3c2)cn1 [Avapritinib, avapritinib, reference compound] |  |  |  |  | In vivo MBP Increases (MBP (myelin) in brain): ++++ (given a score from 1 to 5)
CN1CCC[C@@H]1CCO[C@](C)(c1ccccc1)c1ccc(Cl)cc1 [Clemastine, clemastine, reference compound] |  |  |  |  | In vivo GPR17+ cells, GPR17 Fold Induction (Over Vehicle) ([1]; adult female C57BL/6 mice, PO or IP, treatment period 1-3 days, entire brain, fold change over vehicle treated animals): 1.55; In vivo MBP Increases (MBP (myelin) in brain): + (given a score from 1 to 5)
Cn1cc(-c2ccc3c(N4CCN(c5ncc(Cc6ccccc6)cn5)CC4)cnn3c2)cn1 [Compound 6, 3-[4-(5-benzylpyrimidin-2-yl)piperazin-1-yl]-6-(1-methyl-1H-pyrazol-4-yl)pyrazolo[1,5-a]pyridine] | 407 | 4.47 | 2.95 |  | IC50 (PDGFRα; [6]): < 1000 nM; GPR17 Fold Induction (Over Vehicle; 5 μM) ([2]; 5 μM (10× concentration, final 0.5 μM)): 4.07; fold induction at 150 mg/kg [1, 8]: 18.7; Half-life (In vivo half-life): longer half-life; In vivo MBP Increases (MBP (myelin) in brain): +++++ (5 representing the level of myelination observed in naïve, healthy animals that had not undergone demyelination); MBP expression within the different regions of the brain (MBP (myelin) in brain; single dose, versus vehicle control): significant increase in MBP expression
C[C@@H](OC(=O)N1CCN(c2cnn3cc(-c4cnn(C)c4)ccc23)CC1)c1ccc(Cl)cc1 [Compound 78, (1R)-1-(4-Chlorophenyl)ethyl 4-[6-(1-methyl-1H-pyrazol-4-yl)pyrazolo[1,5-a]pyridin-3-yl]piperazine-1-carboxylate] | < 0.17 | 13.71 | 10.93 | 14.9 | IC50 (PDGFRα; [6]): < 1000 nM; Time post administration until number of OPCs in the brain was comparable to control animals ([4]; single administration 5 mg/kg): about 9 days; OPC population recovery after 6 days ([4]; single administration, Compound 78 compared to Compound 6): greater recovery; Half-life (In vivo half-life): shorter half-life than Compound 6; GPR17+ cells within the brain tissue ([5]; Group 2: vehicle on day 0, first dose of compound on day 5, sacrificed three days after the last dose): significant numbers of GPR17+ cells; GPR17+ cells after second dose ([5]; Group 3: two doses at a dosing interval of 5 days, compared to dosing intervals of 14 days and 21 days): significantly fewer GPR17+ cells; Dosing interval necessary to see any effect on oligodendrocyte generation from the second administration ([5]; mice, two separate doses): greater than 5 days
C[C@@H](NC(=O)N1CCN(c2cnn3cc(-c4cnn(C)c4)ccc23)CC1)c1ccc(Cl)cc1 [Compound 274, N-[(1R)-1-(4-chlorophenyl)ethyl]-4-[6-(1-methyl-1H-pyrazol-4-yl)pyrazolo[1,5-a]pyridin-3-yl]piperazine-1-carboxamide] | 49 | 5.01 and 9.78 | 24.95 | 6.67 | 
Cn1cc(-c2ccc3c(N4CCN(C(=O)NCc5ccc(Cl)cc5)CC4)cnn3c2)cn1 [Compound 275, N-(4-chlorobenzyl)-4-[6-(1-methyl-1H-pyrazol-4-yl)pyrazolo[1,5-a]pyridin-3-yl]piperazine-1-carboxamide] | 67 | 6.70 | 2.71 | 5.31 | 
Cn1cc(-c2ccc3c(N4CCN(C(=O)N5CCC[C@@H]5c5ccc(Cl)cc5)CC4)cnn3c2)cn1 [Compound 277, 3-(4-{[(2R)-2-(4-chlorophenyl)pyrrolidin-1-yl]carbonyl}piperazin-1-yl)-6-(1-methyl-1H-pyrazol-4-yl)pyrazolo[1,5-a]pyridine] | 208 | 5.36 | 8.37 | 0.96 | 
CC1CC(OC(=O)N2CCN(c3cnn4cc(-c5cnn(C)c5)ccc34)CC2)C1 (stereo not shown) [Compound 309, 3 methylcyclobutyl 4-[6-(1-methyl-1H-pyrazol-4-yl)pyrazolo[1,5-a]pyridin-3-yl]piperazine-1-carboxylate] | 824 | 6.67 | 5.13 |  | fold induction at 10 mg/kg [1, 8]: 1.2
C[C@@H](OC(=O)N1CCN(c2cnn3cc(-c4cnn(C)c4)ccc23)CC1)c1ccc(Cl)c(Cl)c1 [Compound 311, (1R)-1-(3,4-dichlorophenyl)ethyl 4-[6-(1-methyl-1H-pyrazol-4-yl)pyrazolo[1,5-a]pyridin-3-yl]piperazine-1-carboxylate] | 39.1 | 5.77 | 10.47 | 2.52 | 
C[C@@H](OC(=O)N1CCN(c2cnn3cc(-c4cnn(C)c4)ccc23)CC1)c1ccc2ccccc2c1 [Compound 312, (1R)-1-(2-naphthyl)ethyl 4-[6-(1-methyl-1H-pyrazol-4-yl)pyrazolo[1,5-a]pyridin-3-yl]piperazine-1-carboxylate] | 145 | 9.00 | 18.49 | 1.53 | 
C[C@@H](OC(=O)N1CCN(c2cnn3cc(-c4cnn(C)c4)ccc23)CC1)c1ccc(C(F)(F)F)cc1 [Compound 313, (1R)-1-[4-(trifluoromethyl)phenyl]ethyl 4-[6-(1-methyl-1H-pyrazol-4-yl)pyrazolo[1,5-a]pyridin-3-yl]piperazine-1-carboxylate] |  | 10.56 | 116.12 | 10.5 | IC50 Values on PDGFRα Kinase Inhibition, IC50 (nM) (PDGFRα; 11-point dose response, 10,000 nM to 0.169 nM, BLQ = below limit of quantitation): BLQ
Cn1cc(-c2ccc3c(N4CCN(C(=O)OCc5ccc(C#N)cc5)CC4)cnn3c2)cn1 [Compound 316, 4-cyanobenzyl 4-[6-(1-methyl-1H-pyrazol-4-yl)pyrazolo[1,5-a]pyridin-3-yl]piperazine-1-carboxylate] | 194 | 9.10 | 34.99 | 2.36 | 
